The values below come from ChEMBL document CHEMBL1201862, “PubChem BioAssay data set” (2004).

SMILES strings stand for the structures.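 Five concentrations, 48 hours, 96-well plates. GI50 marks 50% less growth.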 Active and inactive are the calls of the source. Rule as the data show it: active = GI50 up to about 1.1 µM and inactive = higher.

Among the test systems are A549; CAKI-1; DMS-114; DMS-273; LXFL 529; M19-MEL; NCI-H226; OVCAR-4; SK-MEL-28; SK-MEL-2; SNB-19; SNB-78; XF498; A498; HCT-15; KM-20L2; NCI/ADR-RES.
Test in all cases: inhibition of tumour cell growth, NCI panel, 48 h

Regarding `CC(=O)/C=C1\CC(=O)N(C)c2ccccc2N1`, the GI50 in the assay with A549 was > 100 µM (inactive); in the assay with CAKI-1, > 100 µM (inactive); in the assay with DMS-114, 29.3 µM (inactive); in the assay with DMS-273, > 100 µM (inactive); in the assay with LXFL 529, > 100 µM (inactive); in the assay on M19-MEL, > 100 µM (inactive). The GI50 with NCI-H226, in the assay on OVCAR-4, in the assay with SK-MEL-28, with SK-MEL-2, in the assay with SNB-19 and in the assay on SNB-78 was > 100 µM (inactive) in each case. Also, the GI50 in the assay with XF498 is > 100 µM (inactive).
As for `S=P1(N2CCCCC2)Oc2ccc3ccccc3c2-c2c(ccc3ccccc23)O1`, the GI50 in the assay with A498 is > 35.2 µM (inactive); with A549 it was > 89.5 µM (inactive); in the assay on CAKI-1 it was > 44.6 µM (inactive); in the assay with DMS-114, > 83 µM (inactive); with DMS-273, > 80.2 µM (inactive); in the assay on HCT-15, 63.7 µM. The GI50 is > 78.9 µM (inactive) with KM-20L2; 71 µM (inactive) with M19-MEL; > 54.2 µM (inactive) with NCI-H226; > 51.2 µM (inactive) in the assay with NCI/ADR-RES; 27.5 µM (inactive) in the assay with OVCAR-4; > 100 µM (inactive) with SK-MEL-28. Also, the GI50 is 31.6 µM (inactive) in the assay with SK-MEL-2, > 100 µM (inactive) in the assay with SNB-19, 71.4 µM (inactive) with SNB-78 and 56.9 µM (inactive) with XF498.
Take `C=C1COC(/C=C(\C)CC/C=C(\C)CCl)C1` (configuration not stated): the GI50 with A498 was > 100 µM (inactive); with A549, > 100 µM (inactive); with DMS-114 it was > 100 µM (inactive); in the assay on DMS-273, > 100 µM (inactive); with HCT-15, above 100 µM; in the assay with KM-20L2, > 100 µM (inactive). Further, the GI50 in the assay on LXFL 529, in the assay on M19-MEL, in the assay with NCI-H226, with OVCAR-4, with SK-MEL-28 and in the assay with SK-MEL-2 was > 100 µM (inactive) each time. For the same molecule, the GI50 in the assay on SNB-19, in the assay on SNB-78 and in the assay on XF498 was > 100 µM (inactive) in each case.
Take `CSC(=N)N1N=C2/C(=C/c3ccccc3)CCC[C@H]2[C@H]1c1ccccc1`: the GI50 in the assay on A498 is 4.11 µM (inactive); in the assay with A549, 4.49 µM (inactive); in the assay on DMS-114, 2.9 µM (inactive); with DMS-273, 2.75 µM (inactive); in the assay with HCT-15, 6.52 µM; in the assay with KM-20L2, 2.34 µM (inactive). In addition, the GI50 is 4.55 µM (inactive) in the assay with LXFL 529; 2.64 µM (inactive) in the assay on NCI-H226; 2.58 µM (inactive) in the assay with OVCAR-4; 3.13 µM (inactive) in the assay with SK-MEL-28; 4.2 µM (inactive) in the assay on SK-MEL-2; 6.47 µM (inactive) in the assay with SNB-19. In addition, the values for the GI50 with SNB-78 and in the assay with XF498 were 16 µM (inactive) and 10.8 µM (inactive), respectively.
For the molecule `O=C1CCC2COc3ccc(O)c1c32` (configuration not stated), the GI50 in the assay on A498 is > 100 µM (inactive); in the assay on A549, > 100 µM (inactive); in the assay with CAKI-1, > 100 µM (inactive); in the assay with DMS-114, > 100 µM (inactive); in the assay on DMS-273 it was > 100 µM (inactive); in the assay with HCT-15 it was above 100 µM. Further, the GI50 in the assay with KM-20L2 is > 100 µM (inactive); with LXFL 529 it was > 100 µM (inactive); with M19-MEL, > 100 µM (inactive); in the assay with OVCAR-4 it was > 100 µM (inactive); in the assay with SK-MEL-28 it was > 100 µM (inactive); with SNB-19 it was 24.1 µM (inactive). The GI50 in the assay with SNB-78 and in the assay on XF498 was > 100 µM (inactive) throughout.
Take `c1ccc2c(c1)nnn2CNc1ccc(N2CCOCC2)cc1`: the GI50 in the assay on A498 is > 100 µM (inactive); with A549, > 100 µM (inactive); with DMS-114, > 100 µM (inactive); with DMS-273 it was > 100 µM (inactive); with HCT-15, above 100 µM; with KM-20L2, > 100 µM (inactive). Moreover, the GI50 with LXFL 529, in the assay on M19-MEL, in the assay with NCI-H226, with OVCAR-4, in the assay on SK-MEL-28 and with SK-MEL-2 was > 100 µM (inactive) in each case. In addition, the GI50 with SNB-19, in the assay on SNB-78 and with XF498 was > 100 µM (inactive) each time.
`CCC1=CCN(c2ccc(C)cc2)OC1c1ccc(OC)cc1` (configuration not stated): the GI50 in the assay with A549 is 71.8 µM (inactive); in the assay with CAKI-1, 94.8 µM (inactive); in the assay with DMS-114 it was > 100 µM (inactive); in the assay on DMS-273, 69.8 µM (inactive); in the assay with HCT-15 it was 47 µM; in the assay with KM-20L2, 66.5 µM (inactive). Also, the GI50 was 62.4 µM (inactive) in the assay on LXFL 529; 42.7 µM (inactive) in the assay on M19-MEL; > 100 µM (inactive) with NCI-H226; 92.7 µM (inactive) with OVCAR-4; 50.2 µM (inactive) in the assay on SK-MEL-28; 32.3 µM (inactive) in the assay with SK-MEL-2. The GI50 in the assay with SNB-19 is > 100 µM (inactive); in the assay on SNB-78, > 100 µM (inactive); in the assay on XF498, 46.6 µM (inactive).
With `COc1ccc2c(c1)OCCC1=C2SCC2(C)CCN=C12` (configuration not stated), the GI50 in the assay with A549 is > 100 µM (inactive); in the assay on DMS-114, 92 µM (inactive); with DMS-273, > 100 µM (inactive); in the assay with KM-20L2, 36.1 µM (inactive); in the assay with LXFL 529, > 100 µM (inactive); in the assay on NCI-H226, 35.6 µM (inactive). The GI50 with OVCAR-4, with SK-MEL-28, in the assay with SNB-19, with SNB-78 and in the assay with XF498 was > 100 µM (inactive) in each case.
`Cc1ccc(N2Cc3c(ccc4ccccc34)OP2(=O)Oc2ccc(Cl)c(C)c2)cc1` (configuration not stated): the GI50 in the assay with A498 was 81.5 µM (inactive); in the assay on A549, > 94.6 µM (inactive); in the assay on CAKI-1 it was > 100 µM (inactive); with DMS-114, > 67.1 µM (inactive); with DMS-273, > 77.8 µM (inactive); in the assay on HCT-15, 13.8 µM. The GI50 was > 100 µM (inactive) with KM-20L2; > 100 µM (inactive) in the assay with M19-MEL; > 100 µM (inactive) in the assay on NCI-H226; > 78.7 µM (inactive) in the assay on NCI/ADR-RES; > 100 µM (inactive) with OVCAR-4; > 100 µM (inactive) with SK-MEL-28. Also, the GI50 with SK-MEL-2, in the assay with SNB-19, in the assay on SNB-78 and with XF498 was > 100 µM (inactive) each time.
For the molecule `CC(C)C(=O)/C=C/c1ccc(Br)cc1`, the GI50 in the assay on A498 is 14.5 µM (inactive); in the assay with A549 it was 23.8 µM (inactive); with DMS-114, 15.2 µM (inactive); in the assay on DMS-273, 12.9 µM (inactive); in the assay on KM-20L2 it was 9.86 µM (inactive); with LXFL 529, 16.1 µM (inactive). The GI50 in the assay with M19-MEL is 15.4 µM (inactive); in the assay with OVCAR-4 it was 25.4 µM (inactive); in the assay on SK-MEL-28, 20.1 µM (inactive); with SK-MEL-2 it was 16.1 µM (inactive); in the assay on SNB-19, 16 µM (inactive); with SNB-78, 27 µM (inactive). Also, the GI50 in the assay on XF498 was 16.8 µM (inactive).
